{"source": "paper PMC6148290", "about": "“Endogenous metabolites of vitamin E limit inflammation by targeting 5-lipoxygenase” (Nature Communications, 2018)", "key": {"[1]": {"tested_on": "intracellular Ca^2+", "experiment": "Intracellular Ca2+ in fMLP-stimulated PMNL", "type": "cell-based, human", "method": "PMNL (1 × 10^6) were incubated with Fura-2/AM (Thermo Fisher Scientific; 2 nmol) for 45 min at 37 °C, washed, resuspended in PBS pH 7.4 plus 1 mg/ml glucose and transferred to fluorescene 96-well microplates (Greiner). After pre-incubation with compounds for 10 min, 1 mM Ca^2+ was added, and cells were stimulated with fMLP (1 µM) for another 10 min. Intracellular Ca^2+ concentrations were determined using a thermally (37 °C) controlled NOVOstar fluorescence microplate reader [BMG Labtech, Ortenberg, Germany; emission at 510 nm, excitation at 340 nm (Ca^2+-bound Fura-2) and 380 nm (free Fura-2)][17]. The maximal fluorescence signal was recorded after lysis of […] with Triton X-100, and the minimal fluorescence was assessed by adding 20 mM EDTA to chelate Ca^2+. The difference in the signal ratio obtained with Triton X-100 and Triton X-100 plus 20 mM EDTA was set to 100% for each experiment."}, "[2]": {"tested_on": "zymosan-induced murine peritonitis", "experiment": "Zymosan-induced peritonitis in mice", "type": "in vivo, mouse", "details": "10 mg/kg i.p.", "method": "Mice were killed by inhalation of CO2 after another 30 min for determination of LTC4 levels and vascular permeability and after 4 h for the analysis of LTB4 levels, lipidomic profiles and immune cell infiltration. Cell infiltration and lipid mediator profiles during resolution were studied after 18 h. Peritoneal exudates were collected and cells counted after vital trypan blue staining. LTC4, LTB4, and PGE2 were analyzed in the exudate by enzyme immunoassays (Enzo Life Sciences, Lörrach, Germany) according to manufacturer's instructions. To assess vascular permeability, Evans blue dye (40 mg/kg in saline, 0.3 ml; Sigma-Aldrich) was injected into the tail vain immediately before the induction of peritonitis. Exudates were centrifuged (3000 × g, 5 min) and the absorbance of the supernatants was measured at 610 nm using a Beckman Coulter DU730 spectrophotometer. To investigate the effect of α-T (1a) on the accumulation of α-T-13'-COOH (4a) in infiltrated leukocytes after peritonitis has been established, vehicle or α-[…].) were given 1 h before and/or 4 h post zymosan injection, and mice were killed after another 1.5 h. Leukocytes were obtained from peritoneal exudates by centrifugation (1200 × g, 10 min, 4 °C)."}, "[3]": {"tested_on": "15-LO", "experiment": "15-LO product formation in A23187/AA-activated PMNL", "type": "cell-based, human", "details": "at 3 µM; mean ± s.e.m., n = 3; n.i. no inhibition", "method": "Cells were washed and medium was exchanged. Freshly isolated PMNL (1 × 10^7) and stably transfected HEK-293 (1 × 10^6) cells were suspended in PBS pH 7.4 containing 1 mg/ml glucose and 1 mM CaCl2. […] A23187- and A23187/AA-treated PMNL and A23187/AA-treated HEK-293 (5-LO_wt), HEK-293 (5-LO_3W) and HEK-293 (5-LO_Arg101Asp) cells produced 135 ± 21, 636 ± 112, 300 ± 59, 133 ± 29, 55 ± 9 ng 5-LO products, respectively. PMNL synthesized 29 ± 6 ng 12-HETE and 97 ± 23 ng 15-HETE when challenged with A23187/AA. 5-LO products from monocytes were analyzed by UPLC-MS/MS."}, "[4]": {"target": "T1, human recombinant soluble epoxide hydrolase (sEH) (Homo sapiens, UniProt P34913)", "T1 construct": "made in house; host or cells: Sf9 insect cells (recombinant baculovirus)", "T1 sequence (P34913 1-555)": "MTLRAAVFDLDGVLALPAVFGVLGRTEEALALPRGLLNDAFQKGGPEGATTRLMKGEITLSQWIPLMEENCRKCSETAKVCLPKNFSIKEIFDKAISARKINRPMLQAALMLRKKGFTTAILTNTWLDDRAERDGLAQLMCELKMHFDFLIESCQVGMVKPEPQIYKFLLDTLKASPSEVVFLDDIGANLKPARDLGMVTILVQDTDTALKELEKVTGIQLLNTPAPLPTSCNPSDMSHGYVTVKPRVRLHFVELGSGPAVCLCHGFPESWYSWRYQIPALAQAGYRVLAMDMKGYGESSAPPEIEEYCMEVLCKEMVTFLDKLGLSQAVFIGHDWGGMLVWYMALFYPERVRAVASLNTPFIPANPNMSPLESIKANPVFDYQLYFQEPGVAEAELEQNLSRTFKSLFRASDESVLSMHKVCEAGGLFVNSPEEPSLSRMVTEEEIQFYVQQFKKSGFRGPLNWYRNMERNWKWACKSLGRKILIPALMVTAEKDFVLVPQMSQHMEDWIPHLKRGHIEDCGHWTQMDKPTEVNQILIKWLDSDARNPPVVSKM", "experiment": "sEH activity", "type": "biochemical", "method": "To investigate the effect of LCMs on sEH activity, we purified the human recombinant enzyme from sEH expressing Sf9 insect cells by benzylthio-sepharose affinity chromatography. […] The purified enzyme (60 ng) was diluted in 25 mM Tris HCl, pH 7 plus 0.1 mg/ml BSA and pre-incubated with LCMs for 10 min at room temperature. The enzymatic reaction was started by addition of PHOME (50 µM, Cayman Chemicals), which was converted to the fluorescent 6-methoxy-naphtaldehyde."}, "[5]": {"target": "T2, COX-1 (Homo sapiens, UniProt P23219)", "T2 construct": "Freshly isolated human platelets (1 × 10^8) were pre-incubated with LCMs; endogenous in cells; host or cells: washed human platelets", "T2 sequence (P23219 24-599)": "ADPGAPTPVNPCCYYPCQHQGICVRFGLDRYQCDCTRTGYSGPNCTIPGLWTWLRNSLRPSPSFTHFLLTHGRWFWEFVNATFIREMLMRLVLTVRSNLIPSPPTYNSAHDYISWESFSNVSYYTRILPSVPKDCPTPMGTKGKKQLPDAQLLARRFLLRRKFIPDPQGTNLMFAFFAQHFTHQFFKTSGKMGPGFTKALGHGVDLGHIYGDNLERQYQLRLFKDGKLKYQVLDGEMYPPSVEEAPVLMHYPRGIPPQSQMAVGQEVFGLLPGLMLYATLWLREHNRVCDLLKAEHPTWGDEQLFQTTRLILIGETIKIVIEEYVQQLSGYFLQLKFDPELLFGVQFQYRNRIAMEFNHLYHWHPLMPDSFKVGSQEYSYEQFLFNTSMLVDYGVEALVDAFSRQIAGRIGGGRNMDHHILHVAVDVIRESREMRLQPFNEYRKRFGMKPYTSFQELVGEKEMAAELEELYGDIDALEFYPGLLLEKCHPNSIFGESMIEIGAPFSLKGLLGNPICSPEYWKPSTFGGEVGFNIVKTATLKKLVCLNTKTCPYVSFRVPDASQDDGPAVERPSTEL", "experiment": "COX-1 activity (12-HHT formation) in washed platelets", "type": "cell-based", "method": "Freshly isolated human platelets (1 × 10^8) were pre-incubated with LCMs for 5 min at room temperature. Formation of COX-1-derived 12-HHT was initiated by addition of exogenous AA (5 µM)."}, "[6]": {"tested_on": "PMNL", "experiment": "Uptake of vitamin E metabolites by PMNL", "type": "in vitro ADME, human", "details": "150 nM, 20 min; calculated for spherical PMNL, diameter 13 µm", "method": "Freshly isolated PMNL (1 × 10^7/ml) were suspended in PBS pH 7.4 containing 1 mg/ml glucose. […] LCMs were extracted and analyzed by UPLC-MS/MS using γ-TE-13′-COOH (4g; 12.5 pmol) as internal standard. Intracellular vitamin E metabolite concentrations were calculated assuming spherical cell shape, an equal intracellular distribution, and an average diameter of 13 µm (as determined using a Vi-CELL Series Cell Counter, Beckman Coulter, Krefeld, Germany)."}}, "note": "pIC50: −log10 of the molar value.", "data": [{"smiles": "Cc1c(C)c2c(c(C)c1O)CC[C@@](C)(CCCC(C)CCCC(C)CCCC(C)C(=O)O)O2", "note": "(stereo partly drawn) [4a, 13-((2R)-6-hydroxy-2,5,7,8-tetramethylchroman-2-yl)-2,6,10-trimethyltridecanoic acid]", "values": [{"measurement": "effect on intracellular Ca^2+", "setting": "[1]", "value": "neither affected"}, {"measurement": "vascular permeability", "setting": "[2]; 30 min post zymosan", "value": "reduced"}, {"measurement": "LTC4 levels in the exudate", "setting": "[2]; 30 min post zymosan, ELISA", "value": "strongly decreased"}, {"measurement": "immune cell infiltration into the peritoneal cavity", "setting": "[2]; 4 h post zymosan", "value": "impaired"}, {"measurement": "LTB4 levels in the exudate", "setting": "[2]; 4 h post zymosan, ELISA", "value": "impaired"}, {"measurement": "circulating resolvin E3 in plasma", "setting": "[2]; 18 h post zymosan", "value": "strongly increased"}, {"measurement": "suppressive effect on cell infiltration at the resolution phase", "setting": "[2]; 18 h post zymosan", "value": "vanished"}, {"measurement": "15-LO product formation/PMNL, residual activity", "setting": "[3]", "value": "52.6 ± 20.3 % of control"}, {"measurement": "pIC50", "setting": "[4]", "value": "< 5.00"}, {"measurement": "pIC50", "setting": "[5]", "value": 5.16}, {"measurement": "intracellular concentration reached in PMNL", "setting": "[6]", "value": "micromolar"}]}]}
